Experiments:
[1] = biological target: T1, Solute carrier organic anion transporter family member 1B2 (Rattus norvegicus, UniProt Q9QZX8); assay: (§1) TP_TRANSPORTER: uptake in Xenopus laevis oocytes; format: functional, cell-based; settings: oocyte
T1 sequence (Q9QZX8 whole entry): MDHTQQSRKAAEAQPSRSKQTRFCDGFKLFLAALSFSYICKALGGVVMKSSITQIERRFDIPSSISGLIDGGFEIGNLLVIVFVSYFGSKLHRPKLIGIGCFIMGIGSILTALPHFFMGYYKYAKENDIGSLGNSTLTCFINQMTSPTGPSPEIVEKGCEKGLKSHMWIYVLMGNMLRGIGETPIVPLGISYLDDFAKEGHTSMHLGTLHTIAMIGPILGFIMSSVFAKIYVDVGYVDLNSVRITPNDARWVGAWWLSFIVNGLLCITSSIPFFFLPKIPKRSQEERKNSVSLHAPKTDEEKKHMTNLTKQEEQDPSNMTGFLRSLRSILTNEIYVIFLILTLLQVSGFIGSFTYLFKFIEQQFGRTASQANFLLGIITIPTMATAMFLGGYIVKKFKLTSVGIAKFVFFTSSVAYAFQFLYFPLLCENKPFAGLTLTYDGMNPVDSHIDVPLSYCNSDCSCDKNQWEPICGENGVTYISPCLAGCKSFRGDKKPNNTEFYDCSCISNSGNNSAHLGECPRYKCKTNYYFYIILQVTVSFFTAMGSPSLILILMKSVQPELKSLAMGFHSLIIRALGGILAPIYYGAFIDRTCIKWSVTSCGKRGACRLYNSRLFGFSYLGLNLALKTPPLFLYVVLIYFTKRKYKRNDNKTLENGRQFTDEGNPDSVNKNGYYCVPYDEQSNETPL

[2] = biological target: T2, Solute carrier organic anion transporter family member 1A5 (Rattus norvegicus, UniProt O88397); assay: as §1; format: functional, cell-based, Oocyte; settings: oocyte
T2 sequence (O88397 whole entry): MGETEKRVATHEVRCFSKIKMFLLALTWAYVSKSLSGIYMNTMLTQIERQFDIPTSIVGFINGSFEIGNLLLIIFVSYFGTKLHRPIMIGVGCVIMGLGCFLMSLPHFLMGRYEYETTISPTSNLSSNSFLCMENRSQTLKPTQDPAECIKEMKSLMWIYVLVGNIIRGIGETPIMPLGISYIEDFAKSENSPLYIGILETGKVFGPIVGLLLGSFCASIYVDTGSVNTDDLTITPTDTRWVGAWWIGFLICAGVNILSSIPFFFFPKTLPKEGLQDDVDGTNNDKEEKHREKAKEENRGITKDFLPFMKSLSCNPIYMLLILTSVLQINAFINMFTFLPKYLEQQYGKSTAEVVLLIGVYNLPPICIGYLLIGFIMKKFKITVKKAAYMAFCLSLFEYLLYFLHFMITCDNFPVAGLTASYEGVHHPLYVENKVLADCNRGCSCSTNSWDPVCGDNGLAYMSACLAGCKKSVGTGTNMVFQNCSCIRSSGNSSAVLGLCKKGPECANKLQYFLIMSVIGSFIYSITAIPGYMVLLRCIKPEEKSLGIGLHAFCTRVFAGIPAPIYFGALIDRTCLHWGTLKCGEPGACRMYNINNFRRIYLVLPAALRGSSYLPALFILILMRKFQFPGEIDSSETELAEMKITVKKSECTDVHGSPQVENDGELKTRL

[3] = biological target: T3, Solute carrier organic anion transporter family member 1A4 (Rattus norvegicus, UniProt O35913); assay: as §1; format: functional, cell-based; settings: oocyte
T3 sequence (O35913 whole entry): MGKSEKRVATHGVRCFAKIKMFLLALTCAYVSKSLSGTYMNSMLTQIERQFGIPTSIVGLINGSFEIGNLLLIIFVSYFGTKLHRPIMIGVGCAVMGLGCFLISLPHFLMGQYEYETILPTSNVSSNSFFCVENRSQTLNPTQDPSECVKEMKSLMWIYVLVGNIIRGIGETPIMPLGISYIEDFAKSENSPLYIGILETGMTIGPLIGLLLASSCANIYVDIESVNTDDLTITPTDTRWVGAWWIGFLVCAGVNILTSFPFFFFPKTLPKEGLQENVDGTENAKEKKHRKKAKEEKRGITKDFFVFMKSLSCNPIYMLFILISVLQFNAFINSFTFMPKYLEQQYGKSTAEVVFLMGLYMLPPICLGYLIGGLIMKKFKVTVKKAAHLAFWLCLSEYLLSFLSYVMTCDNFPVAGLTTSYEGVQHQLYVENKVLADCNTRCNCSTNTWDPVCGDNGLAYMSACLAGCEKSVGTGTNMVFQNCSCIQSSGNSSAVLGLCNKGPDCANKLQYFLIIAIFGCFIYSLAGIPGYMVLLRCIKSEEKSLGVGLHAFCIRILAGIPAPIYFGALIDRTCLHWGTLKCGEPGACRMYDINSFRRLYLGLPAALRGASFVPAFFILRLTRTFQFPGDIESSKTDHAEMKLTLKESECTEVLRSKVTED

[4] = biological target: T4, Solute carrier organic anion transporter family member 1A1 (Rattus norvegicus, UniProt P46720); assay: as §1; format: functional, cell-based; settings: oocyte
T4 sequence (P46720 whole entry): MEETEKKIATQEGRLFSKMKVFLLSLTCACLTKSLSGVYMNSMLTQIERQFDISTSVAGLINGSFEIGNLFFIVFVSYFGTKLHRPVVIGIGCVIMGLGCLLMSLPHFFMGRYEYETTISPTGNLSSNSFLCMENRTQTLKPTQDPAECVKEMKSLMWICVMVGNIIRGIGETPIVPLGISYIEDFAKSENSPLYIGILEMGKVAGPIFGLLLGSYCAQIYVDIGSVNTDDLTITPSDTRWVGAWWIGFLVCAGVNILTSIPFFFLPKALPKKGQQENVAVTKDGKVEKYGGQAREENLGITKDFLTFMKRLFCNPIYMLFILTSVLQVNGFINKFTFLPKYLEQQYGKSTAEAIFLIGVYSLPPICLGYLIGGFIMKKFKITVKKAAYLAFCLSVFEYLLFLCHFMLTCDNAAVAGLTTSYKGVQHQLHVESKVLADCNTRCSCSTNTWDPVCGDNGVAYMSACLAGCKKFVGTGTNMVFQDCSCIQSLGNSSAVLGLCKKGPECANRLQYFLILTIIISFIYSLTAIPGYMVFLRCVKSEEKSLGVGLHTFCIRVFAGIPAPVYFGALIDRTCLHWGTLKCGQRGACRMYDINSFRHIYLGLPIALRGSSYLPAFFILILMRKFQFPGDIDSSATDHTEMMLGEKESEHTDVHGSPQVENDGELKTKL

[5] = biological target: T5, Solute carrier organic anion transporter family member 1A5 (Oatp1a5) (Rattus norvegicus, UniProt O88397); assay: as §1; format: functional, cell-based, Oocyte; settings: Xenopus laevis oocytes
T5 sequence (O88397 whole entry): T2 sequence (O88397 whole entry)

[6] = substrate: CCCCC[C@H](O)/C=C/[C@H]1[C@H](O)CC(=O)[C@@H]1C/C=C\CCCC(=O)O; assay: as §1; format: functional, cell-based, Oocyte
[7] = substrate: CC1(C)SSC(C)(C)[C@@H](NC(=O)[C@@H](N)Cc2ccc(O)cc2)C(=O)NCC(=O)N[C@@H](Cc2ccccc2)C(=O)N[C@H]1C(=O)O; assay: as §1; format: functional, cell-based, Oocyte
[8] = substrate: C[C@]12CC[C@@H]3c4ccc(O)cc4CC[C@H]3[C@@H]1CC[C@@H]2O[C@@H]1O[C@H](C(=O)O)[C@@H](O)[C@H](O)[C@H]1O; assay: as §1; format: functional, cell-based, Oocyte
[9] = substrate: O=C1OC(c2ccc(O)c(S(=O)(=O)O)c2)(c2ccc(O)c(S(=O)(=O)O)c2)c2c(Br)c(Br)c(Br)c(Br)c21; assay: as §1; format: functional, cell-based, Oocyte
[10] = substrate: [H][C@@]12CC=C3C[C@@H](OS(=O)(=O)O)CC[C@]3(C)[C@@]1([H])CC[C@]1(C)C(=O)CC[C@@]21[H]; assay: as §1; format: functional, cell-based, Oocyte
[11] = substrate: CC(C)C[C@@H]1NC(=O)[C@@H](C(C)C)NC(=O)[C@@H]2CCCN2C(=O)[C@@H](CC(=O)O)NC(=O)[C@@H](Cc2c[nH]c3ccccc23)NC1=O; assay: as §1; format: functional, cell-based, Oocyte
[12] = substrate: C[C@]12CC[C@@H]3c4ccc(OS(=O)(=O)O)cc4CC[C@H]3[C@@H]1CCC2=O; assay: as §1; format: functional, cell-based, Oocyte
[13] = substrate: CCCCC/C=C\C\C=C/C=C/C=C/[C@@H](SC[C@@H](NC(=O)CC[C@H](N)C(=O)O)C(=O)NCC(=O)O)[C@@H](O)CCCC(=O)O; assay: as §1; format: functional, cell-based, Oocyte

In the case of `C=C[C@H]1C[N+]2(C)CC[C@H]1C[C@H]2[C@H](O)c1ccnc2ccc(OC)cc12`, the Activity [1] is reported as “is not a substrate [-]” and the Activity [2] is reported as “is not a substrate [-]”.

With `Nc1ccc(C(=O)NCC(=O)O)cc1` [AMINOHIPPURIC ACID] the Activity [3] was “is not a substrate [-]”, the Activity [1] was “is not a substrate [-]” and the Activity [2] was “is not a substrate [-]”.

With `CC(C)[C@H](NC(=O)[C@H](CCC(=O)O)NC(=O)[C@H](Cc1ccccc1)NC(=O)[C@@H](C)NC(=O)[C@@H](N)Cc1ccc(O)cc1)C(=O)N[C@H](C(=O)NCC(N)=O)C(C)C` [DELTORPHIN II] the Activity [1] was “is not a substrate [-]” and the Activity [2] was “is not a substrate [-]”.

With `CCCCC[C@H](O)/C=C/[C@H]1[C@H](O)CC(=O)[C@@H]1C/C=C\CCCC(=O)O` [DINOPROSTONE] the Activity [4] was “is not a substrate [-]”.

For `CN(Cc1cnc2nc(N)nc(N)c2n1)c1ccc(C(=O)N[C@@H](CCC(=O)O)C(=O)O)cc1` [METHOTREXATE], the Activity [4] was “is not a substrate [-]”, the Activity [1] was “is not a substrate [-]” and the Activity [2] was “is not a substrate [-]”.

In the case of `C[C@@H]1O[C@@H](O[C@H]2C[C@@H](O)[C@]3(CO)[C@H]4[C@H](O)C[C@]5(C)[C@@H](C6=CC(=O)OC6)CC[C@]5(O)[C@@H]4CC[C@]3(O)C2)[C@H](O)[C@H](O)[C@H]1O` [OUABAIN], the Activity [1] is reported as “is not a substrate [-]” and the Km [5] is reported as 1570 µM.

For `C=CC[N+]1([C@H]2C[C@H]3[C@@H]4CC[C@H]5C[C@H](O)[C@@H](N6CCOCC6)C[C@]5(C)[C@H]4CC[C@]3(C)[C@H]2OC(C)=O)CCCC1` [ROCURONIUM], the Activity [1] was “is not a substrate [-]” and the Activity [2] was “substrate [+]”.

`CC[N+](CC)(CC)CC` [TETRYLAMMONIUM] was tested, and the Activity [3] was “is not a substrate [-]”, the Activity [4] was “is not a substrate [-]” and the Activity [1] was “is not a substrate [-]”. The Activity [2] was “is not a substrate [-]”.

B1: Solute carrier organic anion transporter family member 1A5 (Rattus norvegicus) (protein)
chain: T2 sequence (O88397 whole entry)
B1 gave a Km [6] of 35 µM, a Km [7] of 137 µM and a Km [8] of 39 µM. The Km [9] was 8.3 µM, the Km [10] was 162 µM and the Km [11] was 417 µM. It also gave a Km [12] of 268 µM.

B2: Solute carrier organic anion transporter family member 1B2 (Rattus norvegicus) (protein)
chain: T1 sequence (Q9QZX8 whole entry)
B2 showed a Km [6] of 13 µM, a Km [7] of 22 µM and a Km [8] of 32 µM. It also gave a Km [13] of 6.5 µM, a Km [10] of 5.3 µM and a Km [11] of 13.8 µM. It also gave a Km [12] of 37 µM.
